Results reported in US20250034134A1, “15-PGDH INHIBITOR AND USE THEREOF” (Wuhan Humanwell Innovative Drug Research and Development …, priority 2021, published 2025).

How the values were obtained:
[1] = system: IBD in mice; assay: Efficacy on IBD in mice; assay type: in vivo, mouse; details: for DAI / body weight / inflammatory cell infiltration score of colon tissues / tissue injury score of colon tissues: vs G2 model group; for Colon weight CW (g): day 0 to day 9, DSS mice
Procedure: The mice in G2 to G6 were given 2% DSS aqueous solution on day 0 to day 6, normal water on […], vehicle/positive/test substance on day 0 to day 9, and euthanized on day 10 for necropsy. Colon weight (CW) and colon length (CL) were measured and colon tissues […] were subjected to histopathological examination.

[2] = molecular target: 15-PGDH (Homo sapiens (Human), UniProt P15428); assay: Inhibition test of compounds on 15-PGDH enzyme; assay type: biochemical
Sequence of 15-PGDH (P15428 whole entry): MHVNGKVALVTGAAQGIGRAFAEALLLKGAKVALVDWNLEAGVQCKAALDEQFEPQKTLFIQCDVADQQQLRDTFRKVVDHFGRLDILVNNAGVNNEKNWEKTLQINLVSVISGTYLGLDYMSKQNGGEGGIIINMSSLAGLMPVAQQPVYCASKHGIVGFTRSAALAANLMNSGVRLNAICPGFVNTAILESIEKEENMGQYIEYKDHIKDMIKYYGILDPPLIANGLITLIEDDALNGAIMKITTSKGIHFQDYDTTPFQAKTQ
Procedure: 15-PGDH (R&D Systems, Cat. No.: 5660-DH-010) was prepared to twice the final concentration, i.e., 30 nM, using Assay Buffer (50 mM Tris-HCl, pH 7.5, 0.01vol % Tween 20). The obtained mixture was then added to a 384-well white plate (Cisbio Bioassays, Cat. No. 66PL384025) at 8 μL/well. Negative control wells (with Assay Buffer only and without enzyme) were set. The compound was then prepared to 4 times the final concentration using Assay Buffer, i.e., diluted 3-fold to 10 concentrations starting from 4000 nM. The obtained mixture was added to the above white plate at 4 μL/well, mixed well, centrifuged at 1000 rpm for 1 minute, and incubated at 25° C. for 10 minutes. Both positive control wells (with 15-PGDH only) and negative control wells (without 15-PGDH) were set. A mixture of NAD^+(Select, Cat. No. S2518) and PGE2 (R&D Systems, Cat. No.: 2296/10) was then prepared using Assay Buffer. NAD^+ and PGE2 were prepared to four times their final concentrations, i.e., 2 mM and 0.12 mM, respectively, using Assay Buffer. The obtained mixture was then added to the above white plate at 4 μL/well, mixed well, centrifuged at 1000 rpm for 1 minute, and incubated at 25° C. for 30 minutes for the reaction. The fluorescence was detected at an excitation wavelength of 340 nm and an emission wavelength of 485 nm using instrument TECAN SPARK 20M. The IC50 value was calculated using four-parameter fitting with GraphPad Prism 8.0.

[3] = system: A549 cells; assay: Effect of compounds on PGE2 levels in A549 cell supernatant; assay type: cell-based; details: 20 nM compound, about 12 hours, after IL-10 stimulation; ELISA
Procedure: A549 cells (Procell, Wuhan) were cultured in F12K+10% FBS. The cells with good status in log phase were selected for the experiment, digested, counted, and inoculated into a 24-well plate at 8000 cells per well. The cells were cultured in a 37° C., 5% CO2 incubator overnight. After adherence, the cells were transferred to a culture medium containing 0.5% FBS and cultured for about 10 hours. IL-10 was added to each well (final concentration of 20 ng/mL, 1 mL per well), and a control group (without IL-10) was set up. After stimulation with IL-10 for about 24 hours, the cell culture medium of each well was aspirated and discarded, and the wells were gently washed with fresh culture medium containing 0.5% FBS. 400 μL of culture medium containing the compound of different concentrations (20 nM and 2500 nM) was added to each well and cultured for about 12 hours. The supernatant was collected and PGE2 was detected using ELISA kit (R&D Systems, Cat. No.: KGE004B).

[4] = Pharmacokinetics in mice; assay type: in vivo; details: mouse, po; male CD-1 mice, 10 mg/kg, gavage, plasma
Procedure: The pharmacokinetic properties of the compounds of the present disclosure in mice were determined with reference to the following experimental methods.
Three male CD-1 mice were used, administered at a dose of 10 mg/kg, the route of administration was by gavage, and the vehicle was 5% DMSO+10% Solutol+85% Saline. The mice were fasted overnight, and the time points of blood collection were before administration and at 15 minutes, 30 minutes, 1 hour, 2 hours, 4 hours, 8 hours, and 24 hours after administration. Blood samples were centrifuged at 6800 g for 6 minutes at 2 to 8° C., and plasma was collected and stored at −80° C. 10 μL of plasma at each time point was taken, and added with 200 μL of methanol containing 100 ng/mL internal standard. The mixture was vortexed, mixed evenly, and then centrifuged at 18000 g for 7 minutes at 2 to 8° C. 200 μL of the mixture was transferred to a 96-well injection plate for LC-MS/MS quantitative analysis. The main pharmacokinetic parameters were analyzed using WinNonlin 7.0 software with non-compartmental model.

Cn1nc2cc(N3CC4CC4c4cc(C(=O)N5CCC(F)(F)CC5)cnc43)ccn2c1=O (single isomer, unassigned) [Compound I-3B]
DAI ([1]; G4, 2.5 mg/kg bid): significant decrease | body weight ([1]; G4, 2.5 mg/kg bid): increase | inflammatory cell infiltration score of colon tissues ([1]; G4, 2.5 mg/kg bid): significant decrease | tissue injury score of colon tissues ([1]; G4, 2.5 mg/kg bid): significant decrease | Colon weight CW (g) ([1]; G4 low-dose, 2.5 mg/kg bid): significant decrease | DAI ([1]; G5, 5 mg/kg bid): significant decrease | body weight ([1]; G5, 5 mg/kg bid): significant increase | inflammatory cell infiltration score of colon tissues ([1]; G5, 5 mg/kg bid): significant decrease | tissue injury score of colon tissues ([1]; G5, 5 mg/kg bid): significant decrease | Colon weight CW (g) ([1]; G5 high-dose, 5 mg/kg bid): significant decrease

CN1Cc2cc(N3CC4CC4c4cc(C(=O)N5CCC(F)(F)CC5)cnc43)cnc2C1=O (centres unmarked) [Compound I-2, 3-(6-(4,4-difluoropiperidine-1-carbonyl)-1,1a,2,7b-tetrahydro-3H-cyclopropa[c][1,8]naphthyridin-3-yl)-6-methyl-5,6-dihydro-7H-pyrrolo[3,4-b]pyridin-7-one]
IC50 [2]: 5.15 nM | Fold increase of PGE2 in A549 cell supernatant [3]: 5.23

Cn1nc2cc(N3CC4CC4c4cc(C(=O)N5CCC6(CC5)CC6)cnc43)ccn2c1=O (centres unmarked) [Compound I-28, 7-(6-(6-azaspiro[2.5]octane-6-carbonyl)-1,1a,2,7b-tetrahydro-3H-cyclopropa[c][1,8]naphthyridin-3-yl)-2-methyl-[1,2,4]triazolo[4,3-a]pyridin-3(2H)-one]
IC50 [2]: 1.71 nM | Fold increase of PGE2 in A549 cell supernatant [3]: 4.05 | AUC(0-t) [4]: 10700 ng·h/mL | Cmax [4]: 5040 ng/mL

Cn1ccc2cc(N3CC4CC4c4cc(C(=O)N5CCC(F)(F)CC5)cnc43)ccc2c1=O (centres unmarked) [Compound I-12, 6-(6-(4,4-difluoropiperidine-1-carbonyl)-1,1a,2,7b-tetrahydro-3H-cyclopropa[c][1,8]naphthyridin-3-yl)-2-methylisoquinolin-1(2H)-one]
IC50 [2]: 2.1 nM | Fold increase of PGE2 in A549 cell supernatant [3]: 5.44 | AUC(0-t) [4]: 107000 ng·h/mL | Cmax [4]: 14800 ng/mL

Cn1ncc2cc(N3CC4CC4c4cc(C(=O)N5CCC(F)(F)CC5)ccc43)ccc2c1=O (centres unmarked) [Compound I-13, 6-(6-(4,4-difluoropiperidine-1-carbonyl)-1,1a,2,7b-tetrahydro-3H-cyclopropa[c]quinolin-3-yl)-2-methylphthalazin-1(2H)-one]
IC50 [2]: 4.03 nM | Fold increase of PGE2 in A549 cell supernatant [3]: 6.1

O=C(c1cnc2c(c1)C1CC1CN2c1ccn2ncnc2c1)N1CCC(F)(F)CC1 (centres unmarked) [Compound I-16, (3-([1,2,4]triazolo[1,5-a]pyridin-7-yl)-1a,2,3,7b-tetrahydro-1H-cyclopropa[c][1,8]naphthyridin-6-yl)(4,4-difluoropiperidin-1-yl)methanone]
IC50 [2]: 5.4 nM | Fold increase of PGE2 in A549 cell supernatant [3]: 3.7

Cn1nc2cc(N3CC4CC4c4cc(C(=O)N5CCCC(F)C5)cnc43)ccn2c1=O (centres unmarked) [Compound I-27, 7-(6-(3-fluoropiperidine-1-carbonyl)-1,1a,2,7b-tetrahydro-3H-cyclopropa[c][1,8]naphthyridin-3-yl)-2-methyl-[1,2,4]triazolo[4,3-a]pyridin-3(2H)-one]
IC50 [2]: 5.7 nM | Fold increase of PGE2 in A549 cell supernatant [3]: 2.60
